According to ChEMBL document CHEMBL5143623, “Discovery of novel spiro compound as RAF kinase inhibitor with in vitro potency against KRAS mutant cancer” (Bioorg Med Chem Lett, 2022):
In brackets after ≈: the same amount, converted by molar mass. Blank lines part the entries; values can stand above or below the molecule they belong to. Activity calls are given as the source filed them. The calls are words filed in the database; no cut-off is given here.

Experiments:
[1] = molecular target: RAF proto-oncogene serine/threonine-protein kinase (Homo sapiens, UniProt P04049); test: Inhibition of human recombinant cRAF measured after 1 hr by TR-FRET assay
Chain of RAF proto-oncogene serine/threonine-protein kinase (P04049 whole entry): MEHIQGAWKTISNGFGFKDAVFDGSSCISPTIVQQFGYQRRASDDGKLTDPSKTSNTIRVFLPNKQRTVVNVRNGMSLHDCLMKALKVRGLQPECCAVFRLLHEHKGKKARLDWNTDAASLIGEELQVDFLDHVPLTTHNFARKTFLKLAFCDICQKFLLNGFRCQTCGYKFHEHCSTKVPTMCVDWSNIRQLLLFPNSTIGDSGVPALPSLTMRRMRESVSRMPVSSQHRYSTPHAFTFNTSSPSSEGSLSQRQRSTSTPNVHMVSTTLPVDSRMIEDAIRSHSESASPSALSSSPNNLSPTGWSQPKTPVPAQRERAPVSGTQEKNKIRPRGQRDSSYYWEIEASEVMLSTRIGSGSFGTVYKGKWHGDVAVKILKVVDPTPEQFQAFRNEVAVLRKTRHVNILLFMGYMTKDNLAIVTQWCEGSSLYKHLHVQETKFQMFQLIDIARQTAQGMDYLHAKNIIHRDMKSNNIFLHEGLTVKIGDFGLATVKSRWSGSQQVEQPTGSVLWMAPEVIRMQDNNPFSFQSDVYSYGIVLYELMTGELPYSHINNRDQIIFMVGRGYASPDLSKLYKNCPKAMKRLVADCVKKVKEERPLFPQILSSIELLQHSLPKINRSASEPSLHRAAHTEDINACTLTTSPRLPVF

[2] = test system: NCI-H358; test: Growth inhibition of human H358 cells expressing KRAS […] mutant measured after 3 days by Cell-titer Glo assay; assay type: functional; conditions: NCI-H358, 72 h, time 3 day
[3] = test system: NCI-H358; test: Effect on Erk signalling pathway in human H358 cells assessed as increase in Erk phosphorylation by HTRF assay; assay type: functional, cell-based
[4] = molecular target: T1, Cytochrome P450 3A4 (Homo sapiens, UniProt P08684); test: Inhibition of CYP3A4 in human liver microsomes using testosterone as substrate; set-up: species or system Microsome
T1 sequence (P08684 whole entry): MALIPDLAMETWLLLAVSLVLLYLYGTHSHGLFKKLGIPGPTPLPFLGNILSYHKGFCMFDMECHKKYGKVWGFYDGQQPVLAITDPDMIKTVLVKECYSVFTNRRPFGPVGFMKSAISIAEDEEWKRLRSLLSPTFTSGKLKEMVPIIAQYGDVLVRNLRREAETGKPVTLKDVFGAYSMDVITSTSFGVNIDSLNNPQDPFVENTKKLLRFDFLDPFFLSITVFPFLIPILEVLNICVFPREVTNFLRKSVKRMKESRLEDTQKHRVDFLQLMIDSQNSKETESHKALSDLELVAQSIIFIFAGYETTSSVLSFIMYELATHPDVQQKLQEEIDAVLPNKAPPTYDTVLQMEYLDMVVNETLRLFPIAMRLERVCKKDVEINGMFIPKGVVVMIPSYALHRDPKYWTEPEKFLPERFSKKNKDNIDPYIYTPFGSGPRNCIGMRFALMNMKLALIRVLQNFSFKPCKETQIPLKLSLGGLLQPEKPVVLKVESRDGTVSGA

[5] = Solubility of compound in PBS at pH 7.4; assay type: physicochemical
[6] = molecular target: Cytochrome P450 2C9 (Homo sapiens, UniProt P11712); test: Inhibition of CYP2C9 in human liver microsomes; assay type: ADME, Microsome
Chain of Cytochrome P450 2C9 (P11712 whole entry): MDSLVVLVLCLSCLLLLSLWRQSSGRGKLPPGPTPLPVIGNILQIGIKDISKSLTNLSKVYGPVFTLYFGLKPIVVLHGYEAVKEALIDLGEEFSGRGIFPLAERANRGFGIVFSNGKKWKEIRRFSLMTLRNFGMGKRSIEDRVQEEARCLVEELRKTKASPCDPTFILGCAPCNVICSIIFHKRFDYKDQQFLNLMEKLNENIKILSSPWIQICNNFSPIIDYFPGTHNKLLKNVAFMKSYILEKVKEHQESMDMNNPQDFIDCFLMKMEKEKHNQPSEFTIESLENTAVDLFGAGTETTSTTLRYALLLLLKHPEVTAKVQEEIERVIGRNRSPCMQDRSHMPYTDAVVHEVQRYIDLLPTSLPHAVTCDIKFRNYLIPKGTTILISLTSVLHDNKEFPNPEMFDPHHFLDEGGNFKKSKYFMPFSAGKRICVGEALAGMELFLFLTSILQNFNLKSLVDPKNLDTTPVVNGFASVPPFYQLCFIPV

[7] = molecular target: Voltage-gated inwardly rectifying potassium channel KCNH2 (Homo sapiens, UniProt Q12809); test: Inhibition of hERG; assay type: toxicity
Chain of Voltage-gated inwardly rectifying potassium channel KCNH2 (Q12809 whole entry): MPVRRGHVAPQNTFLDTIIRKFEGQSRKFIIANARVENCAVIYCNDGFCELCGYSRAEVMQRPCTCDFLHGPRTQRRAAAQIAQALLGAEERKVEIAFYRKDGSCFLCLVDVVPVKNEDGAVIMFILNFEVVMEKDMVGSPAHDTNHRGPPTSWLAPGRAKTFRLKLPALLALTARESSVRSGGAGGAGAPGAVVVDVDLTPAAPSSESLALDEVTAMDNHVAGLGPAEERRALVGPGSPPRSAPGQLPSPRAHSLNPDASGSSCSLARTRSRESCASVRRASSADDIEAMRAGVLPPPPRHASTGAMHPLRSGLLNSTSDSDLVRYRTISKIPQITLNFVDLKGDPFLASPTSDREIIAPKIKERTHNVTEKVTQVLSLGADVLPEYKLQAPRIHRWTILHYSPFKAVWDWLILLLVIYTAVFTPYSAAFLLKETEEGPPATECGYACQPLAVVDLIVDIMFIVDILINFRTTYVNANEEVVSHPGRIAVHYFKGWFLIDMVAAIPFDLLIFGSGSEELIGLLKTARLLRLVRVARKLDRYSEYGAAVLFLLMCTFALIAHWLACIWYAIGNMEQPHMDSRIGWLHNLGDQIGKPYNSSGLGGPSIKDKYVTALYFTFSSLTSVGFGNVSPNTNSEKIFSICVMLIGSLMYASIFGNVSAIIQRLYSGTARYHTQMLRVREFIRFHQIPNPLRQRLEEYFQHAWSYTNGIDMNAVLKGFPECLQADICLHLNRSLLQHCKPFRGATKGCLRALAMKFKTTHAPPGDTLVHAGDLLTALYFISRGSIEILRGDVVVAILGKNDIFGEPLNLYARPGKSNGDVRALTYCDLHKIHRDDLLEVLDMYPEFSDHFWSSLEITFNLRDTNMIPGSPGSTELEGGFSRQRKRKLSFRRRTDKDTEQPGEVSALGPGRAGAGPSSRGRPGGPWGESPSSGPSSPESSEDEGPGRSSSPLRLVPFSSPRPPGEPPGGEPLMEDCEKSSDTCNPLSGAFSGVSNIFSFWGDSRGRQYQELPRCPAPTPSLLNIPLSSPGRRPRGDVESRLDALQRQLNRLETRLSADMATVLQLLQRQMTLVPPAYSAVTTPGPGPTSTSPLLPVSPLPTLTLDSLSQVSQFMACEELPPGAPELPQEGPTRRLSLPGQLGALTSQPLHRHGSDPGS

[8] = molecular target: Cytochrome P450 2C19 (Homo sapiens, UniProt P33261); test: Inhibition of CYP2C19 in human liver microsomes; assay type: ADME, Microsome
Chain of Cytochrome P450 2C19 (P33261 whole entry): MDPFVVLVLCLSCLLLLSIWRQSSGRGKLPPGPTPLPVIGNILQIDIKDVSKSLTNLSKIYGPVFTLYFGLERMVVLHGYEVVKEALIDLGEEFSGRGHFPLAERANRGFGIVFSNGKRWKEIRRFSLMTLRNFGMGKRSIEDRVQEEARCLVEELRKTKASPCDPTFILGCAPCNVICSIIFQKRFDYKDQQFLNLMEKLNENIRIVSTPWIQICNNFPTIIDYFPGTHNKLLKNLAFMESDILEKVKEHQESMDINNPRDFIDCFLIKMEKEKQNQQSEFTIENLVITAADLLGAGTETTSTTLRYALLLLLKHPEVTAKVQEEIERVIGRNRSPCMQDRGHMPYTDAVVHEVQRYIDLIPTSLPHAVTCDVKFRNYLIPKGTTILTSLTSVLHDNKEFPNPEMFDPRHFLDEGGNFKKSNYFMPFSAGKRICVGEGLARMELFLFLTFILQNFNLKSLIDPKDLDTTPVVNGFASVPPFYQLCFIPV

[9] = molecular target: T1, Cytochrome P450 3A4; test: Inhibition of CYP3A4 in human liver microsomes using midazolam as substrate; set-up: species or system Microsome
[10] = Stability of compound in human liver microsomes assessed as half life; assay type: ADME, Microsome
[11] = Stability of compound in mouse liver microsomes assessed as half life; assay type: ADME, Microsome
[12] = molecular target: T2, Cytochrome P450 1A2 (Homo sapiens, UniProt P05177); test: Inhibition of CYP1A2 in human liver microsomes; assay type: ADME, Microsome
T2 sequence (P05177 whole entry): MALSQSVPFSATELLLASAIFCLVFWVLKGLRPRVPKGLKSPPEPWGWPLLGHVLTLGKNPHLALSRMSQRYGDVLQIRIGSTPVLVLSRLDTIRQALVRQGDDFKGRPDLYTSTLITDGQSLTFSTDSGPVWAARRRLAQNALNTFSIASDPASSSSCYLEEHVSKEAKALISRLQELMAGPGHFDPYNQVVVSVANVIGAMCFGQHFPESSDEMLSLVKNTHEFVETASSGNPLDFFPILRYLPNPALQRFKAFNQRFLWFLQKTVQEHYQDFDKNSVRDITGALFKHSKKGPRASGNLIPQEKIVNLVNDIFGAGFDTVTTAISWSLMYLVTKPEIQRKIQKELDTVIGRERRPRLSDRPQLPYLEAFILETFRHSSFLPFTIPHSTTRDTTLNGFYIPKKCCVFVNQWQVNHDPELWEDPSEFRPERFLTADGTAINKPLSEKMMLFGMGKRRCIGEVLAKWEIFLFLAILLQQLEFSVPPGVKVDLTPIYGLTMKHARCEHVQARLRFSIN

[13] = Hepatic clearance in human liver microsomes; assay type: ADME, Microsome
[14] = Hepatic clearance in dog liver microsomes; assay type: ADME, Canis lupus familiaris, Microsome
[15] = Hepatic clearance in mouse liver microsomes; assay type: ADME, Microsome
[16] = Stability of compound in Dog liver microsomes assessed as half life; assay type: ADME, Canis lupus familiaris, Microsome
[17] = molecular target: Cytochrome P450 2D6 (Homo sapiens, UniProt P10635); test: Inhibition of CYP2D6 in human liver microsomes; set-up: species or system Microsome
Chain of Cytochrome P450 2D6 (P10635 whole entry): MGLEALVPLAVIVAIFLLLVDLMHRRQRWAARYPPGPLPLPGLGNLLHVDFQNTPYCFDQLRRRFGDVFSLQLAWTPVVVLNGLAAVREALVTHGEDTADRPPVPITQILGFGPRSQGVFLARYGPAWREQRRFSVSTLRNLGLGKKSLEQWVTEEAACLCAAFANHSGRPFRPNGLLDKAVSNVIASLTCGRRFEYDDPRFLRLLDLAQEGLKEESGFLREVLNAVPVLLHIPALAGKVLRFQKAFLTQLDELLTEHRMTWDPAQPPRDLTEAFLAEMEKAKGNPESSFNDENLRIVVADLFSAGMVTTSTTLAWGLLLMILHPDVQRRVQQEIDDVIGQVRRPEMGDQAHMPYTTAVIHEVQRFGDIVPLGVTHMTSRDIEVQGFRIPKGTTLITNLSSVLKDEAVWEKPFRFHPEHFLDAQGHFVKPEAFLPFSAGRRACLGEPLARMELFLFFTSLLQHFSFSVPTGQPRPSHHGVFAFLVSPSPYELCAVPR

[18] = Hepatic clearance in rat liver microsomes; assay type: ADME, Microsome
[19] = Stability of compound in rat liver microsomes assessed as half life; assay type: ADME, Microsome
[20] = AUC(0 to t) in rat at 1 mg/kg, iv by LC-MS/MS analysis; assay type: ADME, organism-based; set-up: dose 1 mg/kg, route iv; conditions: in vivo
[21] = Tmax in mouse at 2 mg/kg, po by LC-MS/MS analysis; assay type: ADME, organism-based; conditions: in vivo
[22] = test system: A-375; test: Growth inhibition of human A375 cells expressing bRaf V600E mutant measured after 3 days by Cell-titer Glo assay; assay type: functional; conditions: A-375, 72 h, time 3 day
[23] = Half life in mouse at 1 mg/kg, iv by LC-MS/MS analysis; assay type: ADME, organism-based; conditions: in vivo
[24] = Cmax in rat at 2 mg/kg, po by LC-MS/MS analysis; assay type: ADME, organism-based; set-up: dose 2 mg/kg, route po; conditions: in vivo
[25] = MRT (0 to infinity) in rat at 1 mg/kg, iv by LC-MS/MS analysis; assay type: ADME, organism-based; conditions: in vivo
[26] = Half life in rat at 1 mg/kg, iv by LC-MS/MS analysis; assay type: ADME, organism-based; conditions: in vivo
[27] = Clearance in rat at 1 mg/kg, iv by LC-MS/MS analysis; assay type: ADME, organism-based; conditions: in vivo
[28] = Permeability of compound by PAMPA assay; assay type: ADME; conditions: read-out: permeability
[29] = AUC(0 to t) in mouse at 1 mg/kg, iv by LC-MS/MS analysis; assay type: ADME, organism-based; set-up: dose 1 mg/kg, route iv; conditions: in vivo
[30] = Tmax in rat at 2 mg/kg, po by LC-MS/MS analysis; assay type: ADME, organism-based; conditions: in vivo
[31] = Volume of distribution in rat at 1 mg/kg, iv by LC-MS/MS analysis; assay type: ADME, organism-based; conditions: in vivo
[32] = Half life in rat at 2 mg/kg, po by LC-MS/MS analysis; assay type: ADME, organism-based; conditions: in vivo
[33] = AUC(0 to t) in mouse at 2 mg/kg, po by LC-MS/MS analysis; assay type: ADME, organism-based; set-up: dose 2 mg/kg, route po; conditions: in vivo
[34] = Oral bioavailability in rat at 2 mg/kg by LC-MS/MS analysis; assay type: ADME, organism-based; conditions: in vivo
[35] = Half life in mouse at 2 mg/kg, po by LC-MS/MS analysis; assay type: ADME, organism-based; conditions: in vivo
[36] = MRT (0 to infinity) in mouse at 2 mg/kg, po by LC-MS/MS analysis; assay type: ADME, organism-based; conditions: in vivo
[37] = MRT (0 to infinity) in rat at 2 mg/kg, po by LC-MS/MS analysis; assay type: ADME, organism-based; conditions: in vivo
[38] = Clearance in mouse at 1 mg/kg, iv by LC-MS/MS analysis; assay type: ADME, organism-based; conditions: in vivo
[39] = Cmax in mouse at 2 mg/kg, po by LC-MS/MS analysis; assay type: ADME, organism-based; set-up: dose 2 mg/kg, route po; conditions: in vivo
[40] = molecular target: Serine/threonine-protein kinase B-raf (Homo sapiens, UniProt P15056); test: Inhibition of human recombinant wild-type bRAF measured after 1 hr by TR-FRET assay
Chain of Serine/threonine-protein kinase B-raf (Homo sapiens, UniProt P15056) (P15056 whole entry): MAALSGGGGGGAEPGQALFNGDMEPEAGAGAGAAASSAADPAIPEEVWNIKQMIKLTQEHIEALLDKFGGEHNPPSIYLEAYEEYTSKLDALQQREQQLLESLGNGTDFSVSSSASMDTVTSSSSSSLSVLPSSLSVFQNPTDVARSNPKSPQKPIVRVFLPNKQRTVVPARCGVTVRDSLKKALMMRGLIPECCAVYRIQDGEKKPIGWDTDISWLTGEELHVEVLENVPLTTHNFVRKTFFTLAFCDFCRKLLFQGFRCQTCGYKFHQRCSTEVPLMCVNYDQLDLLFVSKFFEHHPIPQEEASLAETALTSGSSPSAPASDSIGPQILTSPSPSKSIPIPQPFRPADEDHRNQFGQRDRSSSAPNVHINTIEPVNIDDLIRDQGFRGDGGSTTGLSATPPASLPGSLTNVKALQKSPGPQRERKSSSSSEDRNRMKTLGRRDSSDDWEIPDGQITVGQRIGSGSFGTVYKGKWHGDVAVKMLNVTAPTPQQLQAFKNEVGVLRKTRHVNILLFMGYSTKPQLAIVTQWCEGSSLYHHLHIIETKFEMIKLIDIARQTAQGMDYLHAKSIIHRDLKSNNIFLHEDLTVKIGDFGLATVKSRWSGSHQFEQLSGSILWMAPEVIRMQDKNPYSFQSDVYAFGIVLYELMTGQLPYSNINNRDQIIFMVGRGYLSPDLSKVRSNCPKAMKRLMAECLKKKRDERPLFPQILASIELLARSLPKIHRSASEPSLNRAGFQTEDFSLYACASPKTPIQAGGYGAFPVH

[41] = Volume of distribution in mouse at 1 mg/kg, iv by LC-MS/MS analysis; assay type: ADME, organism-based; conditions: in vivo
[42] = Oral bioavailability in mouse at 2 mg/kg by LC-MS/MS analysis; assay type: ADME, organism-based; conditions: in vivo
[43] = MRT (0 to infinity) in mouse at 1 mg/kg, iv by LC-MS/MS analysis; assay type: ADME, organism-based; conditions: in vivo
[44] = molecular target: Serine/threonine-protein kinase B-raf (Homo sapiens, UniProt P15056, V600E); test: Inhibition of human recombinant bRAF […] mutant measured after 1 hr by TR-FRET assay
[45] = test system: Calu-6; test: Growth inhibition of human Calu-6 cells expressing KRAS Q61K mutant measured after 3 days by Cell-titer Glo assay; assay type: functional; conditions: Calu-6, 72 h, time 3 day
[46] = AUC(0 to t) in rat at 2 mg/kg, po by LC-MS/MS analysis; assay type: ADME, organism-based; set-up: dose 2 mg/kg, route po; conditions: in vivo

- IC50 [1]: 5 nM
- GI50 [2]: 7.3 µM
Compound: Cc1ccc(NC(=O)c2ccnc(C(F)(F)F)c2)cc1-c1ccc2c(c1)OC1(CCS(=O)(=O)CC1)NC2=O

- IC50 [1]: 62 nM
- GI50 [2]: 10 µM
Compound: Cc1ccc(NC(=O)c2ccnc(C(F)(F)F)c2)cc1-c1ccc2c(c1)OC1(COC1)NC2=O

- IC50 [1]: 14 nM
- GI50 [2]: 10 µM
Compound: Cc1ccc(NC(=O)c2ccnc(C(F)(F)F)c2)cc1-c1ccc2c(c1)OC1(CCOCC1)C(=O)N2

- IC50 [4]: > 30 µM
- solubility [5]: 0.46 µM (≈ 0.228 µg/mL)
- IC50 [6]: > 30 µM
- IC50 [8]: > 30 µM
- IC50 [9]: > 30 µM
- half-life [10]: 8.1 min
- half-life [11]: 28.1 min
- IC50 [12]: > 30 µM
- IC50 [1]: 15 nM
- CLH [13]: 18.3 µL/min/g
- CLH [14]: 20.6 µL/min/g
- GI50 [2]: 4.2 µM
- CLH [15]: 61.6 µL/min/g
- half-life [16]: 32.4 min
- IC50 [17]: > 30 µM
- CLH [18]: 52.2 µL/min/g
- half-life [19]: 18.5 min
Compound: Cc1ccc(NC(=O)c2ccnc(C(F)(F)F)c2)cc1-c1ccc2c(c1)OC1(CCOCC1)CC2=O
- Activity [3]: Active
- IC50 [7]: 3.4 µM

- IC50 [4]: > 30 µM
- AUC(0-t) [20]: 1120 ng·h/mL
- Tmax [21]: 1 h
- solubility [5]: 0.7 µM (≈ 0.348 µg/mL)
- GI50 [22]: 2900 nM
- half-life [23]: 169 min
- IC50 [6]: > 30 µM
- Cmax [24]: 52.1 ng/mL
- IC50 [8]: > 30 µM
- MRT inf [25]: 4.35 h
- IC50 [9]: > 30 µM
- half-life [26]: 263 min
- clearance [27]: 15 mL/min/kg
- Papp [28]: < 0.018 ×10⁻⁶ cm/s
- AUC(0-t) [29]: 688 ng·h/mL
- half-life [10]: 29.1 min
- half-life [11]: 61.1 min
- IC50 [12]: > 30 µM
- IC50 [1]: 3.8 nM
- Tmax [30]: 4 h
- Vd [31]: 5.59 L/kg
- CLH [13]: 13.7 µL/min/g
- half-life [32]: 274 min
- AUCt [33]: 546 ng·h/mL
- bioavailability [34]: 24%
- t1/2 [35]: 1.91 h
- CLH [14]: < 9.6 µL/min/g
- GI50 [2]: 3.4 µM
- CLH [15]: 45 µL/min/g
- MRT inf [36]: 3.59 h
- MRT inf [37]: 8.14 h
- half-life [16]: > 139 min
- clearance [38]: 24.2 mL/min/kg
- Cmax [39]: 1.48 ng/mL
- IC50 [17]: > 30 µM
- CLH [18]: 32.7 µL/min/g
- IC50 [40]: 36 nM
- Vd [41]: 5.87 L/kg
- bioavailability [42]: 40%
- half-life [19]: 47 min
- MRT inf [43]: 1.74 h
- IC50 [44]: 29.4 nM
- GI50 [45]: 3.9 µM
- AUC(0-t) [46]: 517 ng·h/mL
Compound: Cc1ccc(NC(=O)c2ccnc(C(F)(F)F)c2)cc1-c1ccc2c(c1)OC1(CCOCC1)NC2=O
- Activity [3]: Active
- IC50 [7]: 5.9 µM

- IC50 [1]: 21 nM
- GI50 [2]: 6.6 µM
Compound: Cc1ccc(NC(=O)c2ccnc(C(F)(F)F)c2)cc1-c1ccc2c(c1)OC1(CCOCC1)CC2N (stereo unspecified)

- IC50 [1]: 60 nM
- GI50 [2]: 19 µM
Compound: Cc1ccc(NC(=O)c2ccnc(C(F)(F)F)c2)cc1-c1ccc2c(c1)NC1(CCOCC1)NS2(=O)=O

- IC50 [1]: 55 nM
- GI50 [2]: 8.9 µM
Compound: Cc1ccc(NC(=O)c2ccnc(C(F)(F)F)c2)cc1-c1ccc2c(c1)N(O)C1(CCOCC1)NC2=O

- IC50 [1]: 29 nM
- GI50 [2]: 7.9 µM
Compound: Cc1ccc(NC(=O)c2ccnc(C(F)(F)F)c2)cc1-c1ccc2c(c1)SC1(CCOCC1)CC2=O

- IC50 [1]: 5 nM
- GI50 [2]: 4.9 µM
Compound: Cc1ccc(NC(=O)c2ccnc(C(F)(F)F)c2)cc1-c1ccc2c(c1)OC1(CCCOC1)NC2=O (stereo unspecified)
